Experimental data: patent US20080161398A1, “STIMULATION OF IN VIVO PRODUCTION OF PROTEINS” (Nutricia N.V., priority 2002, published 2008)

System: mixed muscle protein synthesis
Experiment: Fractional synthetic rate of mixed muscle protein synthesis in anaesthetized rats after intravenous infusion of amino acid compositions
Assay type: in vivo
Method: Four groups of anaesthetized rats were given an amino acid composition. The same total amount of amino acids was given to each group by intravenous infusion. A fifth group was added to the study as a control group. The first group was given a balanced mixture of amino acids, commercially available under the trade name Travasol. This mixture contains less than 5% leucine. The second group was given 75% of Travasol and 25% of leucine. The third group was given 65% of Travasol and 35% of leucine, and the fourth group was given only leucine. The in fractional synthetic rate of mixed muscle protein synthesis (FSR (%/h)) was measured as described by Ferrando et al., Am. J. Physiol., 275:E864-E871, 1998, the contents of which are incorporated herein by reference.

CC(C)C[C@H](N)C(=O)O [Leucine alone, leucine]
response in protein production (administration of L-leucine alone, as shown in the appended examples): does not induce the desired response in protein production | FSR (%/h), fractional synthetic rate of mixed muscle protein synthesis (anaesthetized rats, intravenous infusion, same total amount of amino acids given to each group): 0.0767 ± 0.0204 %/h
